Results as given in patent publication US10618937B2, “Method of treating Alzheimer's disease” (INDUSTRY-ACADEMIC COOPERATION FOUNDATION GYEONGSANG …, priority 2016, dated 2020).

How the values were obtained:
normal mouse = assay: Morris water maze test in normal (wild type) mice; type: in vivo; conditions: normal mouse treated with peptide, IP
Experimental: Male C57BL/6J wild type mice and double transgenic B6.Cg-Tg (APPswe, PSENdE9) 85Dbo Mmjax (APP/PS1) AD-model mice were obtained from Jackson Laboratories (Bar Harbor, Me., USA). The brains of the double transfected mice express Swedish mutation-containing chimeric mouse-human amyloid precursor protein (Mo/HuAPP695swe) and mutant human presenilin 1 protein (PS1-dE9). The mice were fed with an unlimited supply of food and water at an animal breeding ground of a university at a temperature of 23° C., at the relative humidity of 60±10% and in the black and light cycle of 12 h/12 h. […]
The Morris Underwater Maze Test System was constructed as a circular water tank with a diameter of 100 cm and a height of 40 cm containing 15.5 cm depth of water (temperature of 23±1° C.) which was opaque with white ink added. […] The delay time for escaping from the water maze (the time to find the hidden escape platform) was calculated for each trial. […] For the probe experiment, the platform was removed, each mouse was allowed to freely swim for 60 seconds, the amount of time the mouse spent in the target quadrant was measured, and the number of platform positions the mouse passed by (where the platform was located during the hidden platform training). […] All data were recorded by using video-tracking software (SMART, Panlab Harward Apparatus, Bioscience Company, Holliston, Mass., USA).

APP/PS1 mice = assay: Thioflavin S staining / immunofluorescence analysis of amyloid plaques in brain; type: in vivo; conditions: IP once every 2.5 days for 45 days
Experimental: Adiponectin receptor-activating novel peptide (5AA1) was IP administered to 10 week old APP/PS1 mice once every 2.5 days for 45 days, and then, to prepare a slide section, the brains of the mice were fixed by transcardial perfusion of ice-cold 4% paraformaldehyde. The brains were fixed in 4% paraformaldehyde for 72 hours, and then, transferred to 20% sucrose and maintained at a temperature of 4° C. for 72 hours. The brains were placed in an optimal cutting temperature (OCT) compound (A.O., USA), frozen in liquid nitrogen, and sectioned into coronal plane (14 μm) in CM 3050C cryostat (Leica, Germany). Pictures of tissue sections were taken on ProbeOn Plus charged slides (Fisher, USA).
Immunofluorescence analysis was performed by using minor modifications of the method described in the existing study (Shah et al., 2014; Shah et al., 2015). Slides containing tissue sections were washed twice with a 0.01 M PBS solution for 15 minutes. Proteinase K was added to the tissue sections, which were then cultured at a temperature of 37° C. for 5 minutes. The tissue sections were then reacted in a blocking solution (5% normal goat serum, 0.3% Triton X-100, PBS) for 1 hour. The slides were reacted overnight with the primary antibody (the same antibody used in the ‘Western blot analysis’) and then reacted with secondary TRITC- or FITC-conjugated antibodies (diluted 1:50 in PBS; Santa Cruz) at room temperature for 90 minutes. The slides were dipped in Prolong Antifade reagent (Molecular Probe, Eugene, Oreg., USA) and stained. All stained slides were analyzed with a confocal laser scanning microscope (Flouview FV 1000). Amyloid plaques were visualized in brain slices after Thioflavin S staining. The brain slices were washed twice with 0.01 M PBS for 10 minutes, and then immersed in fresh 1% Thioflavin S solution at room temperature for 10 minutes. The brain slices were then immersed in 70% ethanol for 5 minutes, then washed twice with water, counterstained with propidium iodide (PI) and covered with cover glass.
Morphological analysis and signals were analyzed with Image J software (open source software provided by the US NIH), and the analysis results were expressed as IOD (Integral Optical Density). The ratio of the amyloid deposit site in the proposed area was also quantified by using Image-J software.

Question: Which results are given for “RGPCG (adiponectin receptor-activating peptide) [5AA1]”?
Answer: latency (time to find the hidden escape platform) (normal mouse): less than 10 seconds; amyloid β plaque in the cortex and hippocampus of the brain (APP/PS1 mice): remarkably reduced
